Results as given in patent publication US6083496A, “Polyamine transport inhibitors” (priority 1996, dated 2000).
Read-outs that look alike come from different tables or passages of the source. Values belong to the compound of their own block, whether it stands above or below them.

Assays:
polyamine transporter [1] = assay: Putrescine uptake ([3H]putrescine) in ZR-75-1 cells; assay type: cell-based, human; conditions: DESC up to 100 μM, MESC up to 200 μM
Protocol: (§1) J. Biol. […] Endocrinology 126: 3223-3231). […] Cell cultures were then washed twice with 1 ml PBS containing 5.7 mM sym-norspermidine. Cells were then lysed with 200-μl aliquot of 1 N NaOH and incubated for 30 minutes at 60° C. After neutralization with 200 μl of 1 N HCl, radioactivity was determined from a 250-μl of the cell lysate by scintillation counting. Uptake activity was expressed per amount of total cellular protein as determined by the method of Bradford (Bradford, M. M. 1976. Anal. Biochem. 72: 248-254). Non-specific binding of radioactive substrate was similarly determined in parallel for both cell lines after a 15 second-incubation with 400 μl of ice-cold uptake solution. […] Km, Ki and Vmax values were then estimated by Line-weaver-Burke analysis. For competitive inhibitors, Ki values were also estimated by measuring uptake activity in the presence of logarithmically increasing concentrations of antagonist, and using the Cheng-Prusoff equation (Cheng. Y. -C. and Prusoff, W. H. 1973. Biochem. Pharmacol. 22: 3099-3108) by iterative curve fitting for a sigmoidal curve. For mixed competitive/noncompetitive inhibition, two methods were used to calculate kinetic constants. […] C. 1976. Enzymes, 3rd Ed., Academic Press, San Diego, Calif.). […] C. 1976. Enzymes, 3rd Ed., Academic Press, San Diego, Calif.).

[2] = Stability in buffered aqueous solution; assay type: physicochemical; conditions: buffered at pH=7.0
ZR-75-1 cells [3] = assay: Effect of inhibitors on cell proliferation (11 days, DNA content); assay type: cell-based, human
Protocol: Effect of Inhibitors on Cell Proliferation--For growth studies, ZR-75-1 cells were cultured in MEZR medium or in phenol red-free RPMI 1640 supplemented with 2 mM L-glutamine, 1 mM sodium pyruvate, 15 mM Hepes, antibiotics, 1 nM 17β-estradiol, 0.5 μg of bovine insulin per ml and 5% (v/v) charcoal-treated fetal bovine serum (SD medium), as indicated in the text. […] M. L. 1989. in The Physiology of Polyamines (Bachrach, U., and Helmer, Y. M. eds) Vol. I, pp. 203-229, CRC Press, Boca Raton). […] Endocrinology 126: 3223-3231). Medium was changed every other day in these experiments because of the slow reaction of the compound with an unknown component present in the IMEM and RPMI 1640 medium formulation.

polyamine transporter [4] = assay: Spermine uptake ([14C]spermine) in ZR-75-1 cells; assay type: cell-based, human
Protocol: as §1

ZR-75-1 cells [5] = assay: Intracellular accumulation of DESC and MESC and polyamine contents (HPLC); assay type: cell-based, human
Protocol: Polyamine Analysis--ZR-75-1 cells were plated in 100 mm culture dishes at 5×10^5 cells/dish in MEZR medium and grown for 5 days with medium changes every other day. Fresh MEZR medium containing the indicated concentration of transport antagonist was then added, plus or minus 200 μM cycloheximide (CHX), and cells were incubated for 1 or 6 hours. […] Cell pellets were resuspended in 300 μl of 10% (v/v) trichloroacetic acid or Tris-DTT buffer (50 mM Tris/HCl, 0.1 mM EDTA, 5 mM DTT, pH 7.5) and stored at -20° C. until further analysis. For chromatographic analysis, samples were first quickly thawed and incubated for 15 minutes at 37° C. Trichloroacetic acid was then added to DTT-containing samples to a final concentration of 10% (wt/v). Samples were dispersed for 2 minutes in a sonicating water bath, and pelleted in a microcentrifuge for 5 minutes. The trichloroacetic acid-insoluble pellet was solubilized in 300-500 μl of 1 N NaOH and used to determine protein content using bovine serum albumin (fraction V) as standard.
Since DESC was eluted as a late, broad peak in the HPLC system used, DTT was added to cell extracts to reduce DESC to MESC and decrease the detection threshold. ZR-75-1 cells were incubated for 1 or 6 hours in MEZR medium in the presence of 50 or 200 μM DESC or MESC prior to determination of polyamine contents. CHX was added at 200 μM where indicated. Other details are provided under "Materials and Methods". Values are the mean±SD of triplicate determinations from 2 independent experiments.

ZR-75-1 cells [6] = assay: Time course of intracellular [3H]spermidine accumulation with transport antagonists; assay type: cell-based; conditions: Homo sapiens
Protocol: The time course of intracellular accumulation of spermidine in the presence of transport antagonists was determined by incubating ZR-75-1 cells in 24-well plates with DESC (50 or 200 μM) or MESC (200 μM) in dissolved in MEZR medium containing 5 μM [^3 H]spermidine in the presence or absence of cycloheximide (CHX, 200 μM), and harvesting at the indicated times for the determination of intracellular radioactive contents, as described above for polyamine uptake assays.

ZR-75-1 cells [7] = assay: Reversal of DFMO-induced growth inhibition by exogenous spermidine; assay type: cell-based, human
Protocol: Effect of Inhibitors on Cell Proliferation--For growth studies, ZR-75-1 cells were cultured in MEZR medium or in phenol red-free RPMI 1640 supplemented with 2 mM L-glutamine, 1 mM sodium pyruvate, 15 mM Hepes, antibiotics, 1 nM 17β-estradiol, 0.5 μg of bovine insulin per ml and 5% (v/v) charcoal-treated fetal bovine serum (SD medium), as indicated in the text. When polyamines or polyamine analogs were added to serum-containing media, 1 mM aminoguanidine was added to inhibit bovine serum amine oxidase (BSAO) activity (Morgan, D. M. L. 1989. in The Physiology of Polyamines (Bachrach, U., and Helmer, Y. M. eds) Vol. I, pp. 203-229, CRC Press, Boca Raton). The effect of the transport inhibitors on cell growth was measured by incubating ZR-75-1 cells for 11 days in medium supplemental with antagonist, polyamines and/or 1 mM DFMO as indicated, followed by colorimetric determination of DNA content with 3,5-diaminobenzaic acid (Simard, J., Dauvois, S., Haagensen, D. E., Levesque, C., Merand, Y. and Labrie, F. 1990. Endocrinology 126: 3223-3231). Medium was changed every other day in these experiments because of the slow reaction of the compound with an unknown component present in the IMEM and RPMI 1640 medium formulation.

[8] = DESC stability in biological media (HPLC, cell-free); assay type: physicochemical; conditions: imem medium, 37° C., 5% CO2, cell-free, read-out: Fraction of compound decomposed
Protocol: DESC stability--DESC stability was tested by incubating the compound dissolved (at 50 μM) in PBS or in IMEM medium containing 10% (v/v) fetal bovine serum plus or minus 1 mM aminoguanidine in a humid 5% CO2 atmosphere at 37° C. and in the absence of cells. At indicated times, trichloroacetic acid was added to aliquots of this solution to a final concentration 10% (w/v) and the samples directly analyzed by HPLC as above.

[9] = secondary amino group of the spermine head; cited from earlier work
polyamine transporter [10] = assay: Spermidine uptake ([3H]spermidine) in CHO-K1 cells; assay type: cell-based, Chinese hamster; conditions: MESC thioether derivatives, FIG. 5
polyamine transporter [11] = conditions: ZR-75-1 cells; compound as its own substrate; read-out: Km, putrescine transport; cited from earlier work
ZR-75-1 cells [12] = conditions: background; cited from earlier work
polyamine transporter [13] = conditions: ZR-75-1 cells; compound as its own substrate; read-out: Km, spermidine transport; cited from earlier work
[14] = 200 μM compound + 200 μM CHX, 1 h
[15] = 200 μM compound + 200 μM CHX, 6 h

Stability in aqueous solution [2]: stable for months
Compound: NCCCNCCCC(NCCCN)C(=O)NCCSSCCN (stereo not drawn) [DEASC, N-[2,2'-Dithio(Ethyl, 1'-Aminoethyl)]spermine-5-carboxamide]
Mode of inhibition of [3H]putrescine uptake (polyamine transporter [1]): mixed competitive/non-competitive
Influence of 1 mM aminoguanidine on the growth effect of the compound (ZR-75-1 cells [3]): completely prevented by the amine oxidase inhibitor
inhibition at 50 µM (ZR-75-1 cells [3]; Homo sapiens, ZR-75-1, 264 h, 50 μM, 11 days): 20%

DESC intracellular content (ZR-75-1 cells [5]; 50 μM compound, 1 h): < 0.01 nmol/mg protein
MESC intracellular content (ZR-75-1 cells [5]; 50 μM compound, 1 h): < 0.01 nmol/mg protein
DESC intracellular content (ZR-75-1 cells [5]; 50 μM compound, 6 h): < 0.01 nmol/mg protein
MESC intracellular content (ZR-75-1 cells [5]; 50 μM compound, 6 h): < 0.01 nmol/mg protein
Effect of CHX on internalization of the compound (ZR-75-1 cells [5]; 200 μM DESC + 200 μM CHX): did not enhance DESC internalization
DESC intracellular content (ZR-75-1 cells [5]; [14]): < 0.01 nmol/mg protein
MESC intracellular content (ZR-75-1 cells [5]; [14]): < 0.01 nmol/mg protein
MESC intracellular content (ZR-75-1 cells [5]; [15]): < 0.01 nmol/mg protein
DESC intracellular content (ZR-75-1 cells [5]; 200 μM compound, 1 h): < 0.01 nmol/mg protein
MESC intracellular content (ZR-75-1 cells [5]; 200 μM compound, 1 h): < 0.01 nmol/mg protein
DESC intracellular content (ZR-75-1 cells [5]; 200 μM compound, 6 h): 0.12 ± 0.01 nmol/mg protein
MESC intracellular content (ZR-75-1 cells [5]; 200 μM compound, 6 h): < 0.01 nmol/mg protein
Intracellular level relative to accumulation of substrates (spermidine, sym-norspermidine, spermine) under identical conditions (ZR-75-1 cells [5]; 200 μM, 6 h): about 1.5%
Stability in aqueous solution [2]: stable for months
degraded at 48 h, 50 µM [8]: 40%
Compound: NCCCNCCCC(NCCCN)C(=O)NCCSSCCNC(=O)C(CCCNCCCN)NCCCN (stereo not drawn) [DESC, 2,2'-dithiobis(N-ethyl-spermine-5-carboxamide)]
Increase in affinity for the polyamine transporter on dimerization of MESC into DESC (polyamine transporter [4]; DESC relative to MESC): up to 20 fold
Ki against [14C]spermine transport, fold lower than that of DEASC (polyamine transporter [4]; ZR-75-1 cells, FIG. 2): about 5 fold
Ki against [14C]spermine transport, fold lower than that of MESC (polyamine transporter [4]; ZR-75-1 cells, FIG. 2): ~16 fold
Spermidine intracellular content (ZR-75-1 cells [5]; 50 μM compound, 1 h): 0.81 ± 0.14 nmol/mg protein
Spermidine intracellular content (ZR-75-1 cells [5]; 50 μM compound, 6 h): 0.73 ± 0.11 nmol/mg protein
Spermine intracellular content (ZR-75-1 cells [5]; 50 μM compound, 6 h): 8.60 ± 0.29 nmol/mg protein
Spermidine intracellular content (ZR-75-1 cells [5]; [14]): 0.76 ± 0.04 nmol/mg protein
Spermidine intracellular content (ZR-75-1 cells [5]; [15]): 0.70 ± 0.03 nmol/mg protein
Spermidine intracellular content (ZR-75-1 cells [5]; 200 μM compound, 1 h): 0.79 ± 0.11 nmol/mg protein
Spermidine intracellular content (ZR-75-1 cells [5]; 200 μM compound, 6 h): 0.76 ± 0.11 nmol/mg protein
inhibition at 200 µM (ZR-75-1 cells [6]; 5 μM [3H]spermidine, 6 hours, no CHX, read-out: Decrease of net spermidine accumulation): 50%
activity at 200 µM (ZR-75-1 cells [6]; read-out: Cellular level of newly internalized spermidine relative to control conditions): 20%
Prevention of the reversal of DFMO-induced growth inhibition by spermidine (ZR-75-1 cells [7]; 50 μM, DESC:spermidine ratio up to 500): unable to prevent the reversal

Compound: NCCC[C@](N)(C(=O)O)C(F)F [DFMO, α-difluoromethylornithine]
inhibition at 1000 µM (ZR-75-1 cells [7]; Homo sapiens, ZR-75-1, 264 h, 1 mM, 11-day incubation): ~50%

DESC intracellular content (ZR-75-1 cells [5]; 50 μM compound, 1 h): < 0.01 nmol/mg protein
MESC intracellular content (ZR-75-1 cells [5]; 50 μM compound, 1 h): < 0.01 nmol/mg protein
DESC intracellular content (ZR-75-1 cells [5]; 50 μM compound, 6 h): < 0.01 nmol/mg protein
MESC intracellular content (ZR-75-1 cells [5]; 50 μM compound, 6 h): < 0.01 nmol/mg protein
DESC intracellular content (ZR-75-1 cells [5]; 200 μM compound, 1 h): < 0.01 nmol/mg protein
MESC intracellular content (ZR-75-1 cells [5]; 200 μM compound, 1 h): 0.020 nmol/mg protein
DESC intracellular content (ZR-75-1 cells [5]; 200 μM compound, 6 h): < 0.01 nmol/mg protein
MESC intracellular content (ZR-75-1 cells [5]; 200 μM compound, 6 h): 0.13 nmol/mg protein
Compound: NCCCNCCCC(NCCCN)C(=O)NCCS (stereo not drawn) [MESC, N-(2-mercaptoethyl)spermine-5-carboxamide]
pKa [9]: ≈ 5.5
Spermidine intracellular content (ZR-75-1 cells [5]; 50 μM compound, 1 h): 0.95 ± 0.11 nmol/mg protein
Spermidine intracellular content (ZR-75-1 cells [5]; 50 μM compound, 6 h): 0.75 ± 0.11 nmol/mg protein
Spermidine intracellular content (ZR-75-1 cells [5]; 200 μM compound, 1 h): 1.15 ± 0.07 nmol/mg protein
Spermidine intracellular content (ZR-75-1 cells [5]; 200 μM compound, 6 h): 0.81 ± 0.15 nmol/mg protein
Influence of 1 mM aminoguanidine on the growth effect of the compound (ZR-75-1 cells [3]): not blocked by aminoguanidine
inhibition at 200 µM (ZR-75-1 cells [3]; Homo sapiens, ZR-75-1, 264 h, 200 μM, 11 days, read-out: Decrease in cell growth): 35%

Compound: [N-]=[N+]=Nc1ccc(C(=O)NCCCCNC(=O)CSCCNC(=O)C(CCCNCCCN)NCCCN)c(O)c1 (stereo not drawn) [MESC-ASIB]
Ki toward spermidine uptake compared with MESC (polyamine transporter [10]): did not signicantly (P>0.10) increase the Ki

Compound: NCCCNCCCC(NCCCN)C(=O)NCCSCC(=O)NCCN1C(=O)c2cc(S(=O)(=O)O)cc3c(N)c(S(=O)(=O)O)cc(c23)C1=O (stereo not drawn) [MESC-LY]
Ki toward spermidine uptake compared with MESC (polyamine transporter [10]): did not signicantly (P>0.10) increase the Ki

Compound: NCCCNCCCC(NCCCN)C(=O)NCCSCC(N)=O (stereo not drawn) [MESC-acetamide]
Ki toward spermidine uptake compared with MESC (polyamine transporter [10]): did not signicantly (P>0.10) increase the Ki

Compound: NCCCCN [Putrescine, 1,4-butane-diamine]
Km (polyamine transporter [11]): 3.7 ± 0.4 µM

Compound: NCCCCNCCCN [Spermidine, N-[3-aminopropyl]-1,4-diaminobutane]
Concentration completely reversing DFMO-induced growth inhibition (ZR-75-1 cells [12]): 300 nM
Km (polyamine transporter [13]): 490 ± 150 nM
Concentration completely reversing growth inhibition by 1 mM DFMO (ZR-75-1 cells [7]; 11 days): 0.3 µM
Inhibition of cell proliferation (ZR-75-1 cells [7]; concentrations superior to 0.3 μM, 11 days, FIG. 8): up to 20%

Compound: N=C(N)NN [aminoguanidine, reference compound]
Effect on cell growth, compound alone (ZR-75-1 cells [3]; 1 mM, 11 days): slight inhibitory effect
